Measured values taken from PubChem BioAssay (NCI).
Where “and” joins values, the source holds several entries; their conditions need not be identical. Equal values may be shown once.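 Test compounds were applied to cells in 96-well plates for 48 hours at 5 doses. At the GI50, growth is halved. The concentration for full growth arrest is given as TGI.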

Columns and labels:
Assay in all cases: inhibition of tumour cell growth, NCI panel, 48 h
A498 renal = tested on: A498 renal
SF-295 CNS = tested on: SF-295 CNS
SK-MEL-2 melanoma = tested on: SK-MEL-2 melanoma
T-47D breast = tested on: T-47D breast
SK-MEL-28 melanoma = tested on: SK-MEL-28 melanoma
HOP-92 NSCLC = tested on: HOP-92 NSCLC
MDA-MB-435 = tested on: MDA-MB-435
M14 melanoma = tested on: M14 melanoma
NCI-H522 lung = tested on: NCI-H522 lung
SW-620 colon = tested on: SW-620 colon

Compound | GI50 (A498 renal) [µM] | TGI (A498 renal) [µM] | GI50 (SF-295 CNS) | TGI (SF-295 CNS) [µM] | GI50 (SK-MEL-2 melanoma) [µM] | TGI (SK-MEL-2 melanoma) [µM] | GI50 (T-47D breast) [µM] | TGI (T-47D breast) [µM] | GI50 (SK-MEL-28 melanoma) | TGI (SK-MEL-28 melanoma) [µM] | GI50 (HOP-92 NSCLC) [µM] | TGI (HOP-92 NSCLC) [µM] | GI50 (MDA-MB-435) | TGI (MDA-MB-435) [µM] | GI50 (M14 melanoma) | TGI (M14 melanoma) [µM] | GI50 (NCI-H522 lung) | TGI (NCI-H522 lung) | GI50 (SW-620 colon) | TGI (SW-620 colon) [µM]
COc1ccc2nc3ccccc3c(NCc3ccccc3)c2c1 | 1.7 | 3.15 | 2.13 µM | 5.86 | 2.2 | 4.9 | 2.69 | 8.89 | 1.75 µM | 3.57 | 2.33 | 7.88 | 1.91 µM | 3.93 | 1.73 µM | 3.58 | 1.77 µM | 4.6 µM | 1.72 µM | 4.68
Oc1cc(O)c2c(c1)OC(c1ccc(O)c(O)c1)C(O)C2c1c(O)cc(O)c2c1OC(c1ccc(O)c(O)c1)C(O)C2 (centres undefined) | – | > 100 | – | > 100 | – | > 100 | – | > 100 | – | > 100 | – | > 100 | – | > 100 | – | > 100 | – | > 100 µM | – | > 100
OCC1OC(n2cnc3c(NCc4ccco4)ncnc32)C(O)C1O (centres undefined) | 1.59 | 5.5 | 1.21 µM | 8.3 | 5.43 | 31.6 | 2.43 | 11.3 | 8.72 µM | > 100 | 0.442 | 5.1 | 2.08 µM | 15.1 | 2.44 µM | 17.2 | 1.34 µM | 22 µM | 0.849 µM | > 100
CCOC(=O)c1ccc(NC(=O)c2cccc(NC3=C(Cl)C(=O)N(Cc4ccccc4)C3=O)c2)cc1 | > 100 | > 100 | > 100 µM | > 100 | > 100 | > 100 | > 100 | > 100 | > 100 µM | > 100 | 78.8 | > 100 | > 100 µM | > 100 | > 100 µM | > 100 | 62.9 µM | > 100 µM | > 100 µM | > 100
CC1(C)CC[C@]2(CO)CC[C@]3(C)C(=CC[C@@H]4[C@@]5(C)CCNCC(C)(C)[C@@H]5CC[C@]43C)[C@@H]2C1 | 12.5 | 25.1 | 1.93 µM | 3.97 | 2.32 | 5.57 | 2.42 | 11.2 | 2.13 µM | 5.39 | 1.4 | 4.14 | 3.01 µM | 8.9 | 2.05 µM | 4.14 | 2.62 µM | 7.09 µM | 1.97 µM | 4.41
CCN(CC)CCCNc1cc(OC)c(OC)c2cccnc12 | 18.6 | 42 | 7.74 µM | 33.1 | 14.5 | 42.8 | 16.4 | 42 | 15.7 µM | 32.9 | 28.4 | 62.8 | 3.05 µM | 14.4 | 12.6 µM | 37.6 | 2.38 µM | 10.5 µM | 1.8 µM | 20.2
Cc1cn2c(/C=C3\C(=O)N(C)c4ccc(Cl)cc43)c(C)nc2s1 | 10.8 | > 100 | 3.63 µM | > 100 | 6.81 | > 100 | > 100 | > 100 | 6.6 µM | > 100 | 6.3 | 45.4 | 1.94 µM | 5.66 | 3.3 µM | 32.1 | 2.76 µM | 7.76 µM | 4.27 µM | > 100
O=C(O)c1[nH]c2c([N+](=O)[O-])cc([N+](=O)[O-])cc2c1C(=O)O | – | > 100 | – | > 100 | – | > 100 | – | > 100 | – | > 100 | – | > 100 | – | > 100 | – | > 100 | – | > 100 µM | – | > 100
NS(=O)(=O)c1cc(C(=O)O)c(Cl)c([N+](=O)[O-])c1Cl | – | > 100 | – | > 100 | – | > 100 | – | > 100 | – | > 100 | – | > 100 | – | > 100 | – | > 100 | – | > 100 µM | – | > 100
Cn1cc(-c2nc(-c3cn(C)c4ncccc34)cs2)c2ccccc21 | 1.5 | 13.5 | 1.22 µM | 10.8 | 4.5 | 68.7 | 2.98 | 17 | 2.09 µM | > 100 | 1.68 | 9.39 | 0.292 µM | 1.15 | 0.955 µM | 20.4 | 0.402 µM | 11.9 µM | 1.24 µM | > 100
CN(C)C/C=C/C(=O)Nc1cc2c(Nc3cccc(Cl)c3F)ncnc2cc1OCCOC(F)F | 0.423 | 2.22 | 2.82 µM | 15.6 | 1.94 | 6.27 | 0.0376 | 1.11 | 3.11 µM | 15.3 | 0.205 | 2.05 | 2.22 µM | 11.2 | 3.08 µM | 14.3 | 0.0289 µM | 2.04 µM | 2.05 µM | 11.6
CCC(C)C(=O)OC1CCC=C2C=CC(C)C(CCC3CC(O)CC(=O)O3)C21 (centres undefined) | – | > 66 | – | > 100 | – | > 100 | – | > 100 | – | > 100 | 0.79 | > 100 | – | > 100 | – | > 27.5 | – | 21 µM | – | > 100
C=C1C(=O)O[C@H]2[C@H]1CC/C(COC(=O)N[C@H](Cc1c[nH]c3ccccc13)C(=O)OC)=C\CC[C@@]1(C)O[C@@H]21 | 10.9 | 22.9 | 10.7 µM | 22.7 | 7.21 | 23.8 | 1.94 | 5.06 | 1.96 µM | 4.48 | 1.94 | 5.87 | 2.52 µM | 10 | 2.06 µM | 6.08 | 1.52 µM | 3.22 µM | 1.78 µM | 4.17
OCC1OC(n2cnc3c(NCc4ccccc4O)ncnc32)C(O)C1O (centres undefined) | 1.21 | 6.09 | 6.48 µM | > 56.7 | 0.328 | 1.83 | 0.345 | 4.87 | 4.15 µM | > 100 | 0.709 | 7.51 | 0.184 µM | 3.2 | 0.756 µM | 11.8 | 0.0939 µM | 1.54 µM | 0.291 µM | > 33.9
C[C@@H](Oc1cc(-c2cnn(C3CCNCC3)c2)cnc1N)c1c(Cl)cc(F)cc1Cl | 1.3 | 3.82 | 0.505 µM | 7.23 | 1.95 | 5.41 | 1.74 | 4.58 | 1.56 µM | 3.17 | 0.73 | 3.6 | 0.749 µM | 9.42 | 1.54 µM | 3.23 | 1.79 µM | 5.73 µM | 0.893 µM | 8.13
CC1(C)CN(CCNc2nccc(-c3c(-c4cccc(O)c4)nc4sccn34)n2)S(=O)(=O)N1 | 1.55 | 19.7 | 17.7 µM | > 33.2 | 1.36 | 4.83 | 11.2 | > 33.2 | 0.268 µM | > 33.2 | 29.4 | > 33.2 | 0.641 µM | > 33.2 | 0.317 µM | > 26.4 | 8.52 µM | > 33.2 µM | 15.7 µM | > 33.2
CC(=N\O)/C(C)=N/O.CC(=N\O)/C(C)=N/O.[Fe].[NH2-].c1c[nH]cn1 | > 100 | > 100 | > 100 µM | > 100 | > 100 | > 100 | > 100 | > 100 | > 100 µM | > 100 | 28.6 | > 100 | > 100 µM | > 100 | > 100 µM | > 100 | > 100 µM | > 100 µM | > 100 µM | > 100
O=C(c1ccc(Nc2nccc(NCCCCNc3ccnc4cc(Cl)ccc34)n2)cc1)N1CCCCC1 | 0.674 | 6.22 | 1.54 µM | 3.33 | 2.08 | 4.03 | 2.08 | 5.6 | 2.04 µM | 4.67 | 1.52 | 3.95 | 1.7 µM | 3.89 | 1.71 µM | 3.43 | 2.22 µM | 4.89 µM | 0.589 µM | 2.17
O=c1[nH]c2ccccc2n1C1CCN(CCOc2ccccc2)CC1 | 17.1 | 99.6 | 2.87 µM | 19.2 | 32.8 | > 100 | 15.7 | > 100 | 47.9 µM | > 100 | 22.9 | > 100 | 6.75 µM | 72.3 | 25.4 µM | > 100 | 56.9 µM | > 100 µM | 50.1 µM | > 100
COc1ccc(C(Nc2ccccn2)c2cc(C(C)(C)C)cc(C(C)(C)C)c2O)cc1 (centres undefined) | – | > 100 | – | 59.3 | – | 43.2 | – | 76.4 | – | > 100 | – | > 100 | – | 62.4 | – | 54.9 | – | 17.7 µM | – | > 100
NC(Cc1c[nH]c2cccc(F)c12)C(=O)O (centres undefined) | 1150 | 3670 | 39.5 µM and 176 µM | 1190 | – | > 4500 | – | > 4500 | 74.7 µM and 360 µM | > 4500 | 4110 | > 4500 | 50.9 µM and 189 µM | > 4500 | 59.9 µM and 590 µM | > 4500 | 27.7 µM and 176 µM | 74.5 µM and 729 µM | 47.7 µM and 279 µM | 1020
O=C(COc1cccc(/C=C2\Oc3ccc4ccccc4c3C2=O)c1)c1ccc([N+](=O)[O-])cc1 | > 100 | > 100 | 57.4 µM | > 100 | > 100 | > 100 | 12.6 | 38.3 | 48.4 µM | > 100 | 12.9 | 35.9 | 28.9 µM | > 100 | 18.3 µM | 53.4 | 11.2 µM | 29.3 µM | 14 µM | 27
Cc1ccc(NC2=CC(=O)C(=O)c3ccccc32)cc1 | 1.32 | 5.41 | 1.7 µM | 3.15 | 1.86 | 4.06 | 3.68 | 18.1 | 1.84 µM | 3.58 | 5.71 | 20.2 | 1.74 µM | 3.2 | 1.9 µM | 3.79 | 1.45 µM | 3.18 µM | 1.92 µM | 4.01
